Results: patent US12180137B1, “Solid forms of enantiopure deuterium-enriched bupropion and methods of use thereof” (DeuteRx, LLC, priority 2024, dated 2024)
Structures can show the parent of a compound that is named as a salt.

Test: Particle size distribution by laser diffraction (Malvern Mastersizer 3000, wet dispersion)
Assay type: physicochemical
Settings: wet dispersion in Isopar G, average of three consecutive measurements
Experimental: Particle size distribution was analyzed using laser diffraction. The apparatus used was a Malvern Mastersizer 3000 equipped with a Hydro 3000S cell for wet dispersion measurements. The measuring range was 0.01-3500 μm, the dispersant used was Isopar G (dispersant RI 1.42). The scattering model used was Mie (material RI 1.50, AI 0.10). The cell was cleaned, filled with dispersant, aligned and the background measured (30 sec. for red light, 10 seconds for blue light). The pump speed was set at 2800 rpm. About 100 mg of the sample were dispersed in 0.5 ml of 2% w/w soy lecithin solution in isopar G, stirred gently with a glass rod and brought to 10 ml with isopar G. The suspension was sonicated for about a minute, then added dropwise to the measurement cell until an obscuration of 10-20% was obtained. The sample was then measured for 20 seconds with red light and 10 seconds with blue light. The results given, expressed in Dv(10), Dv(50) and Dv(90) are the average of three consecutive measurements (Table 3).

Row | Particle size distribution Dv(10) [μm] | Particle size distribution Dv(50) [μm] | Particle size distribution Dv(90) [μm] | SMILES
1 | 4.9 | 64 | 208 | CC(NC(C)(C)C)C(=O)c1cccc(Cl)c1 (racemic) [Bupropion HCl]
2 | 7.1 | 31 | 179 | [2H]N(C(C)(C)C)[C@@]([2H])(C)C(=O)c1cccc(Cl)c1 [Compound 101]
